Assay [1] concerns Escherichia coli. In words: Inhibitory activity against chorismate mutase; No inhibition.
Assay [2] has as its system Escherichia coli. In words: Inhibitory activity against (PDT22) Prephenate dehydratase at 500 uM; No inhibition.
Assay [3] can be described thus: Inhibitory activity against chorismate mutase. On the set-up: species or system Escherichia coli.
The nature of assay [4]: Inhibitory activity against (PDT22) Prephenate dehydratase. More on the design: species or system Escherichia coli.
In assay [5] the test system is Escherichia coli. Put plainly: Inhibitory activity against chorismate mutase at 500 uM; No inhibition.
In assay [6] the test system is Escherichia coli. Put plainly: Inhibitory activity against (PDT22) Prephenate dehydratase at 500 uM.
Assay [7] in a line: Inhibitory activity against Chorismate mutase. More on the design: species or system Escherichia coli.

pIC50: −log10 of the molar value. Active and inactive are the calls of the source. The rule behind the calls is not given here.

As usually defined, the inhibition is how much of the control response was suppressed. On to `CC(=O)Nc1cccc(C(=O)O)c1-c1c(NC(C)=O)cccc1C(=O)O`, for which the inhibition entry in the assay on Escherichia coli [1] and with Escherichia coli [2] was “inactive” in each case.
For orientation: pIC50 means the IC50 on a negative log10 scale, so that one unit is a factor of ten. The low end stands for a high IC50, the high end for a low IC50. Regarding `Cc1cccc(C(=O)O)c1-c1c(C(=O)O)cccc1[N+](=O)[O-]`, the pIC50 in assay [3] was 3.14; in assay [4], 2.89.
In the case of `O=C(O)c1ccc([N+](=O)[O-])cc1-c1c(C(=O)O)cccc1[N+](=O)[O-]`, the figures for the pIC50 in assay [3] and in assay [4] were 2.94 and 3.12, respectively.
For the compound `O=C(O)c1cccc(C(=O)O)c1-c1c(C(=O)O)cccc1[N+](=O)[O-]`, the pIC50 in assay [3] is 3.35; in assay [4], 2.77.
For `O=C(O)c1ccccc1-c1c(C(=O)O)cccc1[N+](=O)[O-]`, the pIC50 in assay [3] was 3.55; in assay [4], 2.72.
For `O=C(O)c1ccccc1-c1ccccc1C(=O)O`, the inhibition entry in the assay with Escherichia coli [5] and in the assay with Escherichia coli [2] was “inactive” throughout.
For `COc1cccc(C(=O)O)c1-c1ccccc1C(=O)O`, the negative logarithm of the IC50 (pIC50) in assay [4] was 2.40.
For the compound `O=C(O)c1ccc([N+](=O)[O-])c(-c2c(C(=O)O)cccc2[N+](=O)[O-])c1`, the pIC50 in assay [3] is 2.87; in assay [4], 3.26.
`O=C(O)c1cc(O)c(O)cc1-c1c(C(=O)O)cccc1[N+](=O)[O-]` came in with an inhibition in the assay on Escherichia coli [6] below 25%. This compound also showed a negative logarithm of the IC50 (pIC50) in assay [3] of 3.00.
`O=C(O)c1ccccc1-c1c(O)cccc1C(=O)O`: the pIC50 in assay [3] is 3.00; in assay [4], 2.54.
Take `O=C(O)c1cc(O)ccc1-c1c(C(=O)O)cccc1[N+](=O)[O-]`: the pIC50 in assay [3] is 3.46; in assay [4], 3.02.
In the same order, the values of `O=C(O)c1cccc([N+](=O)[O-])c1-c1c(C(=O)O)cccc1[N+](=O)[O-]` are 4.30 and 3.22.
On to `COc1cccc(C(=O)O)c1-c1c(C(=O)O)cccc1[N+](=O)[O-]`, for which the pIC50 in assay [3] was 3.10; in assay [4], 2.52.
In the same order, the values of `O=C(O)c1cccc([N+](=O)[O-])c1-c1cccc(F)c1C(=O)O` are 3.22 and 2.65.
Regarding `O=C(O)c1cc(C(=O)O)c(-c2ccccc2[N+](=O)[O-])c(C(=O)O)c1`, the values for the negative logarithm of the IC50 (pIC50) in assay [7] and in assay [4] were 2.52 and 2.73, respectively.

Values taken from ChEMBL document CHEMBL1133957, “A selective inhibitor of Escherichia coli prephenate dehydratase” (Bioorg Med Chem Lett, 2001).
